In ChEMBL document CHEMBL4507300 (2021):

What was measured:
[1] = molecular target: Mitogen-activated protein kinase kinase kinase 6 (Homo sapiens) (UniProt O95382); conditions: Compound concentration 1000.0 nM
[2] = molecular target: LIM domain kinase 1 (Homo sapiens) (UniProt P53667); conditions: Compound concentration 1000.0 nM
[3] = molecular target: GABA-A receptor; anion channel (Rattus norvegicus) (UniProt O09028+P15431+P18506+P18508+P19969+P20236+P23574+P23576+P28471+P28473+P30191+P62813+P63079+P63138+Q91ZM7+Q9ES14); conditions: Compound concentration 10.0 uM
[4] = molecular target: Mitogen-activated protein kinase 3 (Homo sapiens) (UniProt P27361); conditions: Compound concentration 1000.0 nM
[5] = molecular target: Casein kinase I isoform gamma-2 (Homo sapiens) (UniProt P78368); conditions: Compound concentration 1000.0 nM
[6] = molecular target: Alpha-2B adrenergic receptor (Homo sapiens) (UniProt P18089); conditions: Compound concentration 10.0 uM
[7] = molecular target: cGMP-dependent protein kinase 2 (Homo sapiens) (UniProt Q13237); conditions: Compound concentration 1000.0 nM
[8] = molecular target: Beta-3 adrenergic receptor (Homo sapiens) (UniProt P13945); conditions: Compound concentration 10.0 uM
[9] = molecular target: Serine/threonine-protein kinase PLK2 (Homo sapiens) (UniProt Q9NYY3); conditions: Compound concentration 1000.0 nM
[10] = molecular target: Calcium/calmodulin-dependent protein kinase type 1D (Homo sapiens) (UniProt Q8IU85); conditions: Compound concentration 1000.0 nM
Chain of Calcium/calmodulin-dependent protein kinase type 1D (Homo sapiens) (Q8IU85 whole entry, looked up): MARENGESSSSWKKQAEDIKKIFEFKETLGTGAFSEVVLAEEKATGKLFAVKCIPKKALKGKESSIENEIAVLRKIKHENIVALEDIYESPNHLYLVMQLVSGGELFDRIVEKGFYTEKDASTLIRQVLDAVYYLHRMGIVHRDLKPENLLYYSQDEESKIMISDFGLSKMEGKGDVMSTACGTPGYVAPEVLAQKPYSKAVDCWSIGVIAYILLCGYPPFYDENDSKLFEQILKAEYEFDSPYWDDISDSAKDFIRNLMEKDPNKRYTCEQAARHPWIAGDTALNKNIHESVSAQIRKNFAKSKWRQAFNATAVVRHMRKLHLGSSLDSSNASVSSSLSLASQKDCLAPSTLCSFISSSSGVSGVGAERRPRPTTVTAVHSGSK

[11] = molecular target: Cyclin-dependent kinase 4 (Homo sapiens) (UniProt P11802); conditions: Compound concentration 1000.0 nM
Chain of Cyclin-dependent kinase 4 (Homo sapiens) (P11802 whole entry): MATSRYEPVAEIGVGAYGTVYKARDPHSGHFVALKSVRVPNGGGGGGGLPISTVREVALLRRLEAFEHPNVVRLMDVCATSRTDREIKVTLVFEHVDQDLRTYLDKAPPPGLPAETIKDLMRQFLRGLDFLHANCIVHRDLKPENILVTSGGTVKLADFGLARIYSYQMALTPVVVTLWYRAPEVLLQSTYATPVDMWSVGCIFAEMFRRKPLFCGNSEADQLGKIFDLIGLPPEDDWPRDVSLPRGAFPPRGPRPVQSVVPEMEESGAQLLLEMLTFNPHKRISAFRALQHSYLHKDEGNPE

[12] = molecular target: Beta-adrenergic receptor kinase 1 (Homo sapiens) (UniProt P25098); conditions: Compound concentration 1000.0 nM
Chain of Beta-adrenergic receptor kinase 1 (Homo sapiens) (P25098 whole entry): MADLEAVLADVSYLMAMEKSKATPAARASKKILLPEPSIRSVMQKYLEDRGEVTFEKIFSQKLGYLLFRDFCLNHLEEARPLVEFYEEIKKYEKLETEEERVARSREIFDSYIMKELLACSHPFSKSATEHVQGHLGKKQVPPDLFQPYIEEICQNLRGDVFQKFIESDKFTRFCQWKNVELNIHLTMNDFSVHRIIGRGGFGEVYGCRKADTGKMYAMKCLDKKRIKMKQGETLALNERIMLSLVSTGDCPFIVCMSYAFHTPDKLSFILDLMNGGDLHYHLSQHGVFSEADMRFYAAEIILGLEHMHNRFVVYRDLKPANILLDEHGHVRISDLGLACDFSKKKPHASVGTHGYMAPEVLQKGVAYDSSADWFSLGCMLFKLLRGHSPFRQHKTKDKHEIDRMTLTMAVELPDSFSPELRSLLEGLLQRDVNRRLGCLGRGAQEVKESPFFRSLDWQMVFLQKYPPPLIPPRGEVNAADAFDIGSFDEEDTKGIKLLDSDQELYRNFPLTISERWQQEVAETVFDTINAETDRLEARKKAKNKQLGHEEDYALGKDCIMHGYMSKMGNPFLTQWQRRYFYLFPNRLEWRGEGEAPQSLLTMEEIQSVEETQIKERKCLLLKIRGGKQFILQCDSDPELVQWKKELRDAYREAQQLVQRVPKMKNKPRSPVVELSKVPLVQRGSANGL

[13] = molecular target: Mitogen-activated protein kinase 14 (Homo sapiens) (UniProt Q16539); conditions: Compound concentration 1000.0 nM
[14] = molecular target: Serine/threonine-protein kinase MARK2 (Homo sapiens) (UniProt Q7KZI7); conditions: Compound concentration 1000.0 nM
[15] = molecular target: Calcium/calmodulin-dependent protein kinase type II subunit gamma (Homo sapiens) (UniProt Q13555); conditions: Compound concentration 1000.0 nM
[16] = molecular target: Mitogen-activated protein kinase 10 (Homo sapiens) (UniProt P53779); conditions: Compound concentration 1000.0 nM
[17] = molecular target: Mitogen-activated protein kinase kinase kinase 4 (Homo sapiens) (UniProt Q9Y6R4); conditions: Compound concentration 1000.0 nM
[18] = molecular target: Interleukin-1 receptor-associated kinase 4 (Homo sapiens) (UniProt Q9NWZ3); conditions: Compound concentration 1000.0 nM
Chain of Interleukin-1 receptor-associated kinase 4 (Homo sapiens) (Q9NWZ3 whole entry): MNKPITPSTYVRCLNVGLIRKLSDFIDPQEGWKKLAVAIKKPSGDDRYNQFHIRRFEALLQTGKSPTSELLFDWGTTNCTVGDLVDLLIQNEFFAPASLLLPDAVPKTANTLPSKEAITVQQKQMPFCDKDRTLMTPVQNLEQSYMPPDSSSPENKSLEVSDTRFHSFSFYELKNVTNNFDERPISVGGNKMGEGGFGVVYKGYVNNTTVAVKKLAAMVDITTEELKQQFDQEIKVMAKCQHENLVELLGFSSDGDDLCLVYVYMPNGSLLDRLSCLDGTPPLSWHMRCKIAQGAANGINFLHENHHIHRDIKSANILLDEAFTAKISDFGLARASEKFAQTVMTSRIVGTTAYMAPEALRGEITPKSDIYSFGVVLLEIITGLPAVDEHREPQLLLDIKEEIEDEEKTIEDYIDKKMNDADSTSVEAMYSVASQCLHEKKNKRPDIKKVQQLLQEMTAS

[19] = molecular target: Serine/threonine-protein kinase SIK2 (Homo sapiens) (UniProt Q9H0K1); conditions: Compound concentration 1000.0 nM
[20] = system: Tyrosine-protein kinase ABL1 (Homo sapiens), P00519 [F317L]; conditions: Compound concentration 1000.0 nM
[21] = molecular target: Serine/threonine-protein kinase TAO1 (Homo sapiens) (UniProt Q7L7X3); conditions: Compound concentration 1000.0 nM
[22] = molecular target: Cyclin-dependent kinase 11B (Homo sapiens) (UniProt P21127); conditions: Compound concentration 1000.0 nM
[23] = system: Epidermal growth factor receptor (Homo sapiens), P00533 [UNDEFINED MUTATION]; conditions: Compound concentration 1000.0 nM
[24] = molecular target: Alpha-2A adrenergic receptor (Homo sapiens) (UniProt P08913); conditions: Compound concentration 10.0 uM
[25] = system: Proto-oncogene tyrosine-protein kinase receptor Ret (Homo sapiens), P07949 [M918T]; conditions: Compound concentration 1000.0 nM
[26] = molecular target: Cyclin-G-associated kinase (Homo sapiens) (UniProt O14976); conditions: Compound concentration 1000.0 nM
[27] = molecular target: Receptor tyrosine-protein kinase erbB-4 (Homo sapiens) (UniProt Q15303); conditions: Compound concentration 1000.0 nM
Chain of Receptor tyrosine-protein kinase erbB-4 (Homo sapiens) (Q15303 whole entry): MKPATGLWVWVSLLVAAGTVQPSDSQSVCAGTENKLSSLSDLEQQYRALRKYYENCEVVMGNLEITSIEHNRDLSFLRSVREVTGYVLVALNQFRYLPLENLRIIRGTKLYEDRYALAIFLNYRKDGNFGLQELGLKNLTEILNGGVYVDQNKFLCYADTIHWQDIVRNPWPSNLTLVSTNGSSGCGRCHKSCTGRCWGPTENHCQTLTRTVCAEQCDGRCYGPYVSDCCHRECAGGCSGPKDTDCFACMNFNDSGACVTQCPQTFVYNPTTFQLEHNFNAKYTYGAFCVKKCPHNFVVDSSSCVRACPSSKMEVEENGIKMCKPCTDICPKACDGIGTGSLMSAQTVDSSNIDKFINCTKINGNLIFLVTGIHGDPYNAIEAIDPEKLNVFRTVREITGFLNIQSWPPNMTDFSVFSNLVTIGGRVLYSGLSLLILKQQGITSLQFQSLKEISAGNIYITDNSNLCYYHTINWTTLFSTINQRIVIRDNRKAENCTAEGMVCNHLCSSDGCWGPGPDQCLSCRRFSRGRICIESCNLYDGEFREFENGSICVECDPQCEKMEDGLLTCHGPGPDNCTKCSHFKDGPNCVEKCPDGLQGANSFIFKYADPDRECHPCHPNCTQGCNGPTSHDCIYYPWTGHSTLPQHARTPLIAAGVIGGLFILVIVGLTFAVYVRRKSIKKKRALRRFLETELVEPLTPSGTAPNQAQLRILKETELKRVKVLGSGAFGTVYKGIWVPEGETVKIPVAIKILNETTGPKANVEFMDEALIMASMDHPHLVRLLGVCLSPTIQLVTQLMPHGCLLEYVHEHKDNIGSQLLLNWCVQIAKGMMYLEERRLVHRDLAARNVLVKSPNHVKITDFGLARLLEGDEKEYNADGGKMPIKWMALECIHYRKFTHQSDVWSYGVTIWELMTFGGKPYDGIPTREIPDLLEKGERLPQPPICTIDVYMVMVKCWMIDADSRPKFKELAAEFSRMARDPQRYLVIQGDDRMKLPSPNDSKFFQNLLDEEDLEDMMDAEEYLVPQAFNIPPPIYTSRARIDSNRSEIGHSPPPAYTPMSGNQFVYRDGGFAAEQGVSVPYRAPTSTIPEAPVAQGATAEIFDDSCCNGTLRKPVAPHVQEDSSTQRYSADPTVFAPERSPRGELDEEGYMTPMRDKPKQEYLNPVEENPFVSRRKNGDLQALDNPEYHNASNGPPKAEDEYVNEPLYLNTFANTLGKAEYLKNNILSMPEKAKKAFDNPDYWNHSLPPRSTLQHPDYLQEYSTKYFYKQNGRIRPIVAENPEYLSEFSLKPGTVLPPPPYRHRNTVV

[28] = molecular target: Serine/threonine-protein kinase PRP4 homolog (Homo sapiens) (UniProt Q13523); conditions: Compound concentration 1000.0 nM
[29] = molecular target: Macrophage-stimulating protein receptor (Homo sapiens) (UniProt Q04912); conditions: Compound concentration 1000.0 nM
Chain of Macrophage-stimulating protein receptor (Homo sapiens) (Q04912 25-304 limits assumed): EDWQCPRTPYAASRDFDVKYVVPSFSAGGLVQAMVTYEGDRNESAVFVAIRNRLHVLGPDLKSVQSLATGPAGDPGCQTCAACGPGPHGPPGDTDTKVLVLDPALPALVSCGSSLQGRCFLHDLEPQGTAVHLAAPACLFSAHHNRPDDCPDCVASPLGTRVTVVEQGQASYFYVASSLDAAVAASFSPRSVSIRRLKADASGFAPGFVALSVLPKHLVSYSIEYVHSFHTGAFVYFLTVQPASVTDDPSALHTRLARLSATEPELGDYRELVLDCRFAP
Chain of Macrophage-stimulating protein receptor (Homo sapiens) (Q04912 310-1400 limits assumed): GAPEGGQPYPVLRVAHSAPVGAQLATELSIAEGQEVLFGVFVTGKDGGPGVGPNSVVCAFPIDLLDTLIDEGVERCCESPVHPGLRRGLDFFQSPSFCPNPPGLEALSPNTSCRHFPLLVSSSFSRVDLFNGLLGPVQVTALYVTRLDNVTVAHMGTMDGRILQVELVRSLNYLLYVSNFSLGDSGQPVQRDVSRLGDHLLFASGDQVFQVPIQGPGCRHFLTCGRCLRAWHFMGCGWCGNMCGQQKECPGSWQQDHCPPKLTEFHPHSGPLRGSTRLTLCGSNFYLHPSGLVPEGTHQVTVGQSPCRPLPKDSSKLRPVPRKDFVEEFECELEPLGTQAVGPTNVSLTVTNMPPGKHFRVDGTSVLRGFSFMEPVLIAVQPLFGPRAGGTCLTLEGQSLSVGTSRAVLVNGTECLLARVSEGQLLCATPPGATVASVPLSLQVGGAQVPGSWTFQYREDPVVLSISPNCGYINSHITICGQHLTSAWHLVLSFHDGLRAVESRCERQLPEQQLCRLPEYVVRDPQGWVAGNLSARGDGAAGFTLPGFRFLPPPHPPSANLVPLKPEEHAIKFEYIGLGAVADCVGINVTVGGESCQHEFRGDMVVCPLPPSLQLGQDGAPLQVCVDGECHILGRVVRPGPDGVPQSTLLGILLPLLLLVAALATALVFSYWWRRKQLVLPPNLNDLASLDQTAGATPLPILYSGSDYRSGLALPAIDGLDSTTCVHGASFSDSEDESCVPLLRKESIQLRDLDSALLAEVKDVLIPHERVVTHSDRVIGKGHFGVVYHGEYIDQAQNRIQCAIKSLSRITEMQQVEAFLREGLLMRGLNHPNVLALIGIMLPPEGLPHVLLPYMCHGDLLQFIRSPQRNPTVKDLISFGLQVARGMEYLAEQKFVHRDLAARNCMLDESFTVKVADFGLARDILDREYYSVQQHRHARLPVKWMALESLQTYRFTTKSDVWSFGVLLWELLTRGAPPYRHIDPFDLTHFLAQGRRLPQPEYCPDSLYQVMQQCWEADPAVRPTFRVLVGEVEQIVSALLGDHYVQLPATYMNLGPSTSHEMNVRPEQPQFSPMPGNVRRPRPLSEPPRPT

[30] = molecular target: cAMP-dependent protein kinase catalytic subunit PRKX (Homo sapiens) (UniProt P51817); conditions: Compound concentration 1000.0 nM
[31] = molecular target: Serine/threonine-protein kinase STK11 (Homo sapiens) (UniProt Q15831); conditions: Compound concentration 1000.0 nM
Chain of Serine/threonine-protein kinase STK11 (Homo sapiens) (Q15831 whole entry): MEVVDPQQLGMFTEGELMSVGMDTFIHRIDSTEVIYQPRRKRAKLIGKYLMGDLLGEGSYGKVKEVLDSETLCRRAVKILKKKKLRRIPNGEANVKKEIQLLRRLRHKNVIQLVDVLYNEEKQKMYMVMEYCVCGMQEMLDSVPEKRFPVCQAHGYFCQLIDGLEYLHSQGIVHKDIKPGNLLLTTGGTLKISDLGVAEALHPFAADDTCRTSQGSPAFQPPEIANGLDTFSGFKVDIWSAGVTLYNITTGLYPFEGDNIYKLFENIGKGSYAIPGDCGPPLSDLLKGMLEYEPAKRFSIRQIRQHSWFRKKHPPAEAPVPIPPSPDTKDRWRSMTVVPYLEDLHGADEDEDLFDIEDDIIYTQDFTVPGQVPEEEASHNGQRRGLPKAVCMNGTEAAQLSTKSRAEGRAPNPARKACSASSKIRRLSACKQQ

[32] = system: Mast/stem cell growth factor receptor Kit (Homo sapiens), P10721 [D816V]; conditions: Compound concentration 1000.0 nM
[33] = molecular target: Dual specificity protein kinase CLK1 (Homo sapiens) (UniProt P49759); conditions: Compound concentration 1000.0 nM
[34] = molecular target: Serine/threonine-protein kinase TAO2 (Homo sapiens) (UniProt Q9UL54); conditions: Compound concentration 1000.0 nM
[35] = molecular target: Ephrin type-A receptor 7 (Homo sapiens) (UniProt Q15375); conditions: Compound concentration 1000.0 nM
[36] = molecular target: AP2-associated protein kinase 1 (Homo sapiens) (UniProt Q2M2I8); conditions: Compound concentration 1000.0 nM
[37] = molecular target: Tyrosine-protein kinase TXK (Homo sapiens) (UniProt P42681); conditions: Compound concentration 1000.0 nM
[38] = system: Phosphatidylinositol 4,5-bisphosphate 3-kinase catalytic subunit alpha isoform (Homo sapiens), P42336 [C420R]; conditions: Compound concentration 1000.0 nM
[39] = molecular target: Serine/threonine-protein kinase N2 (Homo sapiens) (UniProt Q16513); conditions: Compound concentration 1000.0 nM
[40] = molecular target: Mitogen-activated protein kinase kinase kinase 10 (Homo sapiens) (UniProt Q02779); conditions: Compound concentration 1000.0 nM
[41] = molecular target: Calcium/calmodulin-dependent protein kinase type IV (Homo sapiens) (UniProt Q16566); conditions: Compound concentration 1000.0 nM
[42] = molecular target: Serine/threonine-protein kinase WNK2 (Homo sapiens) (UniProt Q9Y3S1); conditions: Compound concentration 1000.0 nM
[43] = molecular target: Phosphorylase b kinase gamma catalytic chain, skeletal muscle/heart isoform (Homo sapiens) (UniProt Q16816); conditions: Compound concentration 1000.0 nM

COc1cccc(CNC(=O)c2nc3scc(COCc4ccc(C(=O)O)cc4)c3c(=O)[nH]2)c1 [T-26c]
inactive: residual activity [1] 74.5% | residual activity [2] 96.8% | inhibition [3] 19% | residual activity [4] 100% | residual activity [5] 97.2% | inhibition [6] 11% | residual activity [7] 100% | inhibition [8] 7.44% | residual activity [9] 56.7% | residual activity [10] 100% | residual activity [11] 91.1% | residual activity [12] 50.1% | residual activity [13] 96.7% | residual activity [14] 100% | residual activity [15] 100% | residual activity [16] 76.6% | residual activity [17] 86.6% | residual activity [18] 85% | residual activity [19] 86.4% | residual activity [20] 87.2% | residual activity [21] 69.5% | residual activity [22] 85.4% | residual activity [23] 74% | inhibition [24] 17.2% | residual activity [25] 89.5% | residual activity [26] 99.6% | residual activity [27] 86.1% | residual activity [28] 97.3% | residual activity [29] 81.9% | residual activity [30] 100% | residual activity [31] 97.2% | residual activity [32] 100% | residual activity [33] 95.6% | residual activity [34] 59.8% | residual activity [35] 86.5% | residual activity [36] 100% | residual activity [37] 87.7% | residual activity [38] 100% | residual activity [39] 98% | residual activity [40] 100% | residual activity [41] 100% | residual activity [42] 54.2% | residual activity [43] 100%
